According to article PMC9995496, “A screen for MeCP2-TBL1 interaction inhibitors using a luminescence-based assay” (Scientific Reports, 2023):
Ends that are not written are not given here. * marks the point of attachment. Biotin = O=C1N[C@H]2[C@H](CS[C@H]2CCCCC(=O)*)N1

target: T1, MeCP2-TBL1 interaction (MeCP2-SmBiT / TBL1-LgBiT) (Mus musculus, UniProt Q9QXE7); assay: MeCP2-TBL1 NanoLuc luciferase complementation assay (cell-free, extracts of transfected HEK293 cells); format: binding, human; conditions: peptide at 20 µM, n = 2
T1 construct: expressed in transfected cells; crude lysate used as a cell-free assay
T1 sequence (Q9QXE7 166-527): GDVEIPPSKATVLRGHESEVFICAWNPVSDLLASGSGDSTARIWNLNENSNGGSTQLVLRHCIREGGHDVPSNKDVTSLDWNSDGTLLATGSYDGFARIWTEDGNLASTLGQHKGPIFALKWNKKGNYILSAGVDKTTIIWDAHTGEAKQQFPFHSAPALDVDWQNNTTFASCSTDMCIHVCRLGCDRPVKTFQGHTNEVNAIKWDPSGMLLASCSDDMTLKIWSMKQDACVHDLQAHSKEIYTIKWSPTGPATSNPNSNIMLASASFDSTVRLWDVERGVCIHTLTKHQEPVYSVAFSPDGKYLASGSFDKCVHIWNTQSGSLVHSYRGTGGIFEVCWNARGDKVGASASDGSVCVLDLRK
Source text: To facilitate the discovery of inhibitors of the interaction between MeCP2 and TBL1/TBLR1, we set out to devise a simple and scalable biochemical assay for measuring the interaction between these two proteins. We initially explored the possibility of screening compound libraries using a previously established fluorescence polarization assay that depends on purified recombinant TBL1/TBLR1[26]. […] The resulting luminescence signal depends on the affinity between the two interacting proteins of interest (Fig. 1A). This method was originally developed to allow for the interrogation of protein–protein interactions in vivo. However, in order to facilitate large scale screening of chemical libraries, we adapted the assay for use as a cell-free system.
We fused the large N-terminal fragment of NanoLuc (LgBiT) to the C-terminus of the WD repeat domains of both TBL1 and TBLR1, and the small C-terminal fragment of NanoLuc (SmBiT) to the C-terminus of the C-terminal half of MeCP2 (Fig. 1B and C). This region of MeCP2 contains the NID (NCoR interaction domain)—the motif in MeCP2 that binds to TBL1/TBLR1.
The AgeI-NotI restriction fragment (encoding EGFP) was then replaced with a codon optimized SmBiT sequence to yield the MeCP2-SmBiT expression plasmid. The TBL1-LgBiT expression vector was derived from a TBL1-mCherry plasmid[25] by replacing the AgeI-NotI restriction fragment (encoding mCherry) with a codon optimized LgBiT sequence. SmBiT-PRKACA and LgBiT-PRKAR2A plasmids are commercially available (Promega, N203 and N204).
Cells were harvested after 24 h and cell pellets were stored at − 80 °C.
In the screens described here, the lysate obtained from a single 15 cm plate was used for 2.5 384-well assay plates. NanoLuc substrate (furimazine) (Promega, N1110) was diluted 1000-fold in passive lysis buffer (Promega, E1941) and added 1:1 to the lysate. Screening libraries were purchased from Asinex[40] and ApexBio (FDA-approved Drug Library, L1021). Compounds were dispensed using an Echo acoustic dispenser and tested at a final concentration of 20 µM in a total assay volume of 20 μl in 384-well plate format. DMSO was added to each well at a final concentration of 0.2% (v/v) and wells containing only DMSO were used as negative control. After 30 min incubation at room temperature, luminescence was measured on a Tecan M1000 multi-mode plate reader. Raw luminescence reads from each well on each plate were normalized to the median luminescence signal for that plate. In the ApexBio screen, the scaled and normalized PKA signal for each compound was subtracted from the MeCP2-TBL1 signal for the same compound. After plate normalization the robust SSMD (SSMD*) was calculated as described elsewhere. A threshold of SSMD* ≥ 3 was applied for discerning primary hits.
Assays were performed as described above except instead of a single concentration, a threefold serial dilution ranging from 60 to 0.03 μM was tested in triplicate for each of the compounds. Half-maximal inhibitory concentrations were calculated using global nonlinear regression by fitting the response data sets of all compounds simultaneously with a four-parameter logistic curve of log inhibitor concentration versus normalized luminescence using GraphPad Prism. During fitting, the maximum and minimum curve values were shared between the data sets.

| effect of competitor peptide on MeCP2-TBL1 luminescence signal | Compound |
| --- | --- |
| strongly inhibited | 35 amino acid peptide: 35 amino acid MeCP2 wild-type NID peptide (residues 285-319), N-terminal biotin (Biotin-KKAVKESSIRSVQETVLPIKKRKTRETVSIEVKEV; UniProt P51608 285-319, looked up, fragment) [reference compound] |

same assay, conditions: primary screen of Asinex library, single well per compound

| Inhibition percent | Compound |
| --- | --- |
| -0.64 | Cc1ncc(C(=O)N2CCOCC2)c(C2CCCCN2C(=O)c2nccc3ccccc23)n1 (stereo not shown) [BDC_23573125] |
| -4.87 | COc1cccc(Cc2cccc(C3CCCN(Cc4ccncc4)C3)n2)c1 (stereo not shown) [BDC_27849507] |
| -0.68 | COCCN1C(=O)C[C@@H](C(=O)NCc2ccccc2COC)[C@@H]1c1ccccc1 [BDC_32231307] |
| -2.65 | CCN1CCN(C(=O)CCC2NC(=O)NC2=O)C(Cc2ccc(-c3ccccc3)cc2)C1=O (stereo not shown) [BDD_21846702] |
| -0.05 | CN1CCC(c2c(C(=O)NCCS(=O)(=O)NC3CCCCC3)sc3ccccc23)C1 (stereo not shown) [BDD_24044260] |

same assay, conditions: primary screen of the Asinex library, sheet "Sargen output Asinex library", one well per compound

| Compound | Inhibition percent [%] |
| --- | --- |
| O=C(Cn1cccc(C(=O)NCc2ccccc2)c1=O)NC1(c2ccccc2)CCCC1 [BDB_26402348] | 2.11 |
| CN(Cc1ccc2ncccc2c1)C(=O)Cn1cc(C(=O)NCc2ccccc2)ccc1=O [BDB_26410269] | -0.72 |
| Cc1ccc(CC(=O)N2CCCC(c3ncc(C(=O)NCc4ccccc4)c(C)n3)C2)cc1 (stereo not shown) [BDC_23198767] | -0.69 |
| COc1ccc(CNC(=O)c2cnc(C)nc2C2CCCCN2C(=O)c2cnccn2)cc1 (stereo not shown) [BDC_23571437] | 0.37 |
| CNC(=O)c1cnc(C)nc1C1CCCCN1CCS(=O)(=O)c1ccccc1 (stereo not shown) [BDC_23573041] | -1.44 |
| COc1ccc(C2CCCN2C(=O)Cn2cc(NC(=O)Cc3ccccc3F)cn2)cc1 (stereo not shown) [BDC_25693383] | -0.19 |
| COc1ccc(Cc2cccc(C3CCN(C(=O)Cc4ccc(F)cc4)CC3)n2)cc1 [BDC_27855593] | 0.65 |
| CNc1ncccc1CN1CCCC(c2cccc(Cc3cccc(F)c3)n2)C1 (stereo not shown) [BDC_27866586] | 7.34 |
| C=CCN1CCN(C(=O)Cc2cccnc2)C(Cc2ccc(-c3cccs3)cc2)C1=O (stereo not shown) [BDD_21855492] | 0.61 |
| CN(Cc1cccc(F)c1)Cc1nc(C2CC(=O)N(Cc3ccccc3)C2)cc(N(C)C)n1 (stereo not shown) [BDD_23510085] | -0.99 |

Second part, the compound after the results:

| Inhibition percent [%] | Compound |
| --- | --- |
| 0.67 | Cc1cnc(C(=O)N2CCC(Cc3nc(C)ncc3C(=O)NCc3ccccc3)CC2)cn1 [BDD_23852576] |
| 5.71 | COc1ccc(F)cc1-c1cccc(CC2(C(=O)NCCN3CCCCC3C)CCOCC2)c1 (stereo not shown) [BDD_24116196] |
| -2.01 | Cc1cc(C)cc(-c2cccc(CC3(C(=O)NCCCN4CCC(C)CC4)CCOCC3)c2)c1 [BDD_24116218] |
| -1.18 | CCCC(=O)N1Cc2ccccc2OC2(CCC(N(C)CC3CCCCC3)CC2)C1 (stereo not shown) [BDD_24804536] |
| -1.53 | CC(=O)Nc1cccc([C@@H]2CN(Cc3ccc4c(c3)n(C)c(=O)n4C)C[C@]23CCCCC(=O)N3)c1 [BDD_25153608] |
| 3.48 | Cc1cc(-c2cnc(C(C)(C)C)nc2C2CCN(Cc3ccc(N4CCCC4)cc3)CC2)on1 [BDD_25871827] |
| 4.40 | Cn1c(=O)c2ccc(C3CCCCN3C(=O)c3cc[nH]n3)nc2n(Cc2ccccc2)c1=O (stereo not shown) [BDD_26868519] |
| -1.33 | Cn1cc(CCC(=O)N2CCCC2c2ccc(CNC3Cc4ccccc4C3)cn2)c2ccccc21 (stereo not shown) [BDD_27352850] |
| -3.22 | CCOc1ccccc1NC(=O)N(C(C)c1ccccc1)C1CCn2c1nc1ccccc1c2=O (stereo not shown) [BDD_27845157] |
| -2.15 | COc1cccc(Cc2cccc(C3CCCN3C(=O)Cc3ccncc3)n2)c1 (stereo not shown) [BDD_27854270] |

same assay, conditions: primary screen of the Asinex library, sheet "Sargen output Asinex library", one well per compound, Batch Ref. 1

| Compound | Inhibition percent [%] |
| --- | --- |
| O=C(Cn1cc(C(=O)NC2CCCCC2)ccc1=O)NCC1(c2ccccc2Cl)CC1 [BDB_26414870] | 4.99 |
| C=CCC1(CC=C)CCN1C(=O)C1(Cc2ccc(-c3cccnc3)cc2)CCOCC1 [BDC_20667788] | -1.31 |
| Cc1cccc(CC(=O)N2CCC(Cc3cccc(-c4cccnc4)c3)(C(N)=O)CC2)c1 [BDC_22461702] | -2.13 |
| CCOc1ccc(CN2CCCC2c2ncc(C(=O)NCc3ccc(F)cc3)c(C)n2)cc1 (stereo not shown) [BDC_23170699] | -3.60 |
| Cc1cccc(CC(=O)N2CCCCC2c2ncc(C(=O)NCc3ccccc3)c(C)n2)c1 (stereo not shown) [BDC_23190776] | -1.94 |
| COc1ccccc1NC(=O)C1CN(C(=O)COc2ccccc2)Cc2cn(C)nc21 (stereo not shown) [BDC_23414979] | -4.37 |
| CCN1C(=O)CC[C@@H](C(=O)NCCOc2ccccc2)[C@@H]1c1ccccc1F [BDC_32230426] | 0.19 |
| O=C1CCCC[C@]2(CN(Cc3ccc(-c4ccccc4)cc3)C[C@H]2c2cc(F)cc(F)c2)N1 [BDD_20406167] | 4.82 |
| COc1cccc(C(=O)N2CCNC(=O)C2Cc2cccc(-c3cccc(F)c3)c2)c1OC (stereo not shown) [BDD_21847933] | 1.68 |
| CCN1CCN(C(=O)Cc2ccccc2OC)C(Cc2cccc(-c3ccncc3)c2)C1=O (stereo not shown) [BDD_21872283] | -1.27 |
| O=C1CC(C(=O)N2CCNC(=O)C2Cc2cccc(-c3ccccc3)c2)c2ccccc2N1 (stereo not shown) [BDD_21879577] | 4.73 |
| CCN1CCN(C(=O)Cc2ccccc2OC)C(Cc2ccc(-c3cccnc3)cc2)C1=O (stereo not shown) [BDD_21886831] | -2.52 |

The next lines start with the values.

| Inhibition percent [%] | Compound |
| --- | --- |
| 11.53 | O=C1CCC[C@]2(CN(Cc3cccc(-c4ccccc4F)c3)C[C@H]2c2ccccc2F)N1 [BDD_23570797] |
| 11.60 | O=C1CCC[C@]2(CN(Cc3cccc(-c4ccccc4F)c3)C[C@H]2c2ccc(F)c(F)c2)N1 [BDD_23570819] |
| 5.89 | COc1ccccc1-c1ccc(CN2C[C@@H](c3cccc(NC(C)=O)c3)[C@@]3(CCCCC(=O)N3)C2)cc1 [BDD_23570835] |
| 1.23 | COc1ccccc1-c1cccc(CN2C[C@@H](c3cc(F)cc(F)c3)[C@@]3(CCCCC(=O)N3)C2)c1 [BDD_23570836] |
| -4.61 | Cc1ncc(C(=O)NCc2ccccc2)c(CC2CCN(C(=O)C3CCCCC3)CC2)n1 [BDD_23848427] |
| -2.46 | COCCNC(=O)c1sc2ccccc2c1C1CN(C(=O)C(C)(C)OC)CCO1 (stereo not shown) [BDD_24015180] |
| -2.41 | NC(=O)c1cc(C2CN(C(=O)c3ccnc(N4CCCCC4)c3)CCO2)nc2ccccc12 (stereo not shown) [BDD_24083754] |
| -2.04 | O=C(Cn1cccn1)N1CCOC(c2cc(C(=O)N3CCOCC3)c3ccccc3n2)C1 (stereo not shown) [BDD_24083810] |
| 3.48 | Cc1cccc(Nc2ccc(C3CCCN3C(=O)COc3ccc4c(c3)OCCO4)nc2)n1 (stereo not shown) [BDD_25671481] |
| -3.87 | COc1ccccc1CNC(=O)c1cn(C)nc1CC1CCN(C(=O)c2cccnc2)CC1 [BDD_26909786] |
| 6.69 | Cc1nc2c(c(Nc3ccccn3)n1)CCN(S(=O)(=O)c1cccc(C(F)(F)F)c1)CC2 [BDD_27755359] |
| 10.59 | CC(C)(C)OC(=O)Nc1cc(-c2c[nH]nc2C2CCCCN2C(=O)OC(C)(C)C)ccn1 (stereo not shown) [BDD_27845058] |
| -2.94 | O=C(c1ccccn1)N1CCCC1c1cccc(Cc2ccc(C(F)(F)F)cc2)n1 (stereo not shown) [BDD_27852665] |
| 9.99 | COc1ccccc1Cc1cccc(C2CCCN2C(=O)Cc2c[nH]c3ccccc23)n1 (stereo not shown) [BDD_27856210] |
